This is an account of results in ChEMBL document CHEMBL1201862, “PubChem BioAssay data set” (2004).

Structures are written as SMILES.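 Compound exposure: 48 hours, 5 concentrations, 96-well plates. GI50 marks 50% less growth.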 Activity calls are given as the source filed them. No stated cut-off is given here; in the data, active = GI50 up to about 1.1 µM and inactive = higher. Bounds are passed on as bounds.

Some test systems named below: HOP-92; ACHN; EKVX; NCI-H522; SK-MEL-28; HCT-116; SW-620; OVCAR-8; NCI-H23; SN12C; SNB-19; SNB-75; M14; HOP-62; DMS-114; SF-268; HCT-15; SF-539; NCI/ADR-RES.
Test in all cases: growth of human tumour cells (NCI), 48 h

For the compound `O=C1NC(=S)NC(=O)C1=CC1CC1`, the GI50 with HOP-92, with ACHN, with EKVX, in the test on NCI-H522, in the test with SK-MEL-28 and with HCT-116 was > 100 µM (inactive) in each case. For the same compound, the GI50 was > 100 µM (inactive) in the test on SW-620; > 100 µM (inactive) with OVCAR-8; > 100 µM (inactive) in the test on NCI-H23; > 100 µM (inactive) in the test on SN12C; > 100 µM (inactive) in the test with SNB-19; 46.3 µM (inactive) in the test with SNB-75. Besides, the GI50 is > 100 µM (inactive) with M14; > 100 µM (inactive) in the test on HOP-62; > 100 µM (inactive) in the test with DMS-114; > 100 µM (inactive) in the test with SF-268; over 100 µM in the test on HCT-15; > 100 µM (inactive) with SF-539.
Consider `O=C1[C@H]2ON(c3ccccc3)C(c3ccc([N+](=O)[O-])cc3)[C@H]2C(=O)N1c1ccc(Cc2ccc(N3C(=O)[C@@H]4ON(c5ccccc5)C(c5ccc([N+](=O)[O-])cc5)[C@@H]4C3=O)cc2)cc1` (stereo partly drawn), for which the GI50 in the test with HOP-92 is 52.4 µM (inactive); in the test on ACHN, > 100 µM (inactive); in the test on EKVX it was > 100 µM (inactive); in the test with NCI-H522, > 100 µM (inactive); with SK-MEL-28, > 100 µM (inactive); in the test with HCT-116 it was > 100 µM (inactive). Besides, the GI50 in the test on SW-620, in the test with OVCAR-8, in the test with NCI-H23, with SN12C, in the test on SNB-19 and in the test on SNB-75 was > 100 µM (inactive) each time. Further, the GI50 in the test on M14 is 13.5 µM (inactive); in the test on HOP-62 it was > 100 µM (inactive); in the test on DMS-114, > 100 µM (inactive); with SF-268, > 100 µM (inactive); with HCT-15, over 100 µM; with SF-539 it was > 100 µM (inactive).
Consider `Cc1ccccc1/N=N/C(C(=O)c1ccccc1)C(=O)c1ccccc1`, for which the GI50 was 17.9 µM (inactive) in the test with HOP-92; 27.4 µM (inactive) in the test on ACHN; 25.2 µM (inactive) in the test with EKVX; 15.7 µM (inactive) with NCI-H522; 24 µM (inactive) in the test with SK-MEL-28; 16.1 µM (inactive) with HCT-116. Moreover, the GI50 in the test with SW-620 is 25.9 µM (inactive); in the test with OVCAR-8, 31.8 µM (inactive); in the test with NCI-H23, 18.3 µM (inactive); in the test on SN12C, 20 µM (inactive); in the test with SNB-19, 18.9 µM (inactive); in the test with SNB-75, 19.1 µM (inactive). In addition, the GI50 with M14 is 18.1 µM (inactive); with HOP-62, 23.8 µM (inactive); in the test with DMS-114, 19.4 µM (inactive); in the test on SF-268, 23.3 µM (inactive); in the test on HCT-15, 17.1 µM; with SF-539, 23.8 µM (inactive).
With `CC(=O)Oc1cc2c(cc1OC(C)=O)OCC(c1ccc(C)cc1)C2` (stereo not drawn), the GI50 is 8.85 µM (inactive) in the test with HOP-92; 23.4 µM (inactive) with EKVX; 2.64 µM (inactive) in the test on NCI-H522; 20 µM (inactive) in the test on SK-MEL-28; 20.7 µM (inactive) in the test with HCT-116; 19.5 µM (inactive) in the test with SW-620. Moreover, the GI50 with OVCAR-8 was 26.8 µM (inactive); in the test with NCI-H23, 15.9 µM (inactive); in the test with SN12C it was 18.1 µM (inactive); in the test on SNB-19, 31.4 µM (inactive); in the test with SNB-75, 9.42 µM (inactive); with HOP-62, 20.5 µM (inactive). For the same compound, the GI50 with DMS-114 is 4.94 µM (inactive); with NCI/ADR-RES it was 25.5 µM (inactive); with SF-268 it was 10.5 µM (inactive); in the test with HCT-15 it was 19.6 µM; with SF-539, 19.5 µM (inactive).
For `CCCN(CCCC(NC(C)=O)C(=O)NCc1ccccc1)C(=O)NCCCl` (stereo not drawn), the GI50 in the test on HOP-92, in the test on ACHN, with EKVX, with NCI-H522, in the test with SK-MEL-28 and in the test on HCT-116 was > 100 µM (inactive) throughout. The GI50 in the test with SW-620, in the test with OVCAR-8, in the test on NCI-H23, with SN12C, in the test with SNB-19 and in the test on SNB-75 was > 100 µM (inactive) throughout. Also, the GI50 in the test on M14 is > 100 µM (inactive); in the test on HOP-62, > 100 µM (inactive); in the test on DMS-114 it was > 100 µM (inactive); in the test with SF-268, > 100 µM (inactive); with HCT-15, over 100 µM; with SF-539, > 100 µM (inactive).
Turning to `O=C(C(O)c1cn(Cc2ccccc2)c2ccccc12)N1CCCCC1` (stereo not drawn), the GI50 in the test with HOP-92 was > 100 µM (inactive); in the test with ACHN it was 53.5 µM (inactive); in the test on EKVX it was 54.6 µM (inactive); in the test on NCI-H522 it was 44.4 µM (inactive); with SK-MEL-28, > 10 µM (inactive); with HCT-116, > 100 µM (inactive). For the same compound, the GI50 with SW-620 was > 100 µM (inactive); in the test on OVCAR-8 it was > 100 µM (inactive); in the test with NCI-H23 it was > 10 µM (inactive); in the test with SN12C, 82.6 µM (inactive); in the test with SNB-19, > 100 µM (inactive); in the test on SNB-75, > 100 µM (inactive). Besides, the GI50 in the test on M14 is > 100 µM (inactive); in the test with HOP-62, > 100 µM (inactive); with DMS-114 it was > 100 µM (inactive); in the test with SF-268, 83.2 µM (inactive); in the test with HCT-15, 76.4 µM; in the test with SF-539, > 100 µM (inactive).
Turning to `c1cc2c3c(c1)c1cc4c(cc1c[n+]3CC2)OCO4` [ANHYDROLYCORINIUM CHLORIDE], the GI50 with HOP-92 was 25.3 µM (inactive); with EKVX, 3.4 µM (inactive); with NCI-H522 it was 2.3 µM (inactive); in the test with SK-MEL-28 it was 4.82 µM (inactive); with HCT-116, 2.81 µM (inactive); in the test with SW-620, 1.9 µM (inactive). Besides, the GI50 with OVCAR-8 was 1.33 µM (inactive); in the test on NCI-H23, 3.59 µM (inactive); with SN12C, 1.99 µM (inactive); in the test with SNB-19, 1.17 µM (inactive); with SNB-75 it was 2.44 µM (inactive); with HOP-62 it was 3.83 µM (inactive). Also, the GI50 with DMS-114 is 2.45 µM (inactive); with NCI/ADR-RES, > 225 µM (inactive); in the test on SF-268, 0.618 µM (active); in the test with HCT-15, over 164 µM; in the test with SF-539 it was 2.48 µM (inactive).
As to `O=C(Cc1cc[n+]([O-])cc1)C(=O)Nc1cc(Cl)c(Cl)cc1Cl`, the GI50 with HOP-92 is 38.3 µM (inactive); in the test with ACHN it was > 100 µM (inactive); in the test with EKVX, > 100 µM (inactive); with NCI-H522, > 100 µM (inactive); with SK-MEL-28 it was > 100 µM (inactive); in the test with HCT-116, > 100 µM (inactive). In addition, the GI50 was > 100 µM (inactive) with SW-620; > 100 µM (inactive) with OVCAR-8; > 100 µM (inactive) in the test on NCI-H23; > 100 µM (inactive) in the test on SNB-19; 77.1 µM (inactive) in the test with SNB-75; > 100 µM (inactive) in the test on M14. The GI50 in the test with HOP-62 was > 100 µM (inactive); with DMS-114, > 100 µM (inactive); with SF-268 it was > 100 µM (inactive); with HCT-15, over 100 µM; in the test on SF-539, > 100 µM (inactive).
For the compound `N=C(N)SCc1cccc([N+](=O)[O-])c1`, the GI50 with HOP-92 is 20.9 µM (inactive); in the test on EKVX, 42.3 µM (inactive); with NCI-H522, 13.5 µM (inactive); in the test on SK-MEL-28, 31.8 µM (inactive); with HCT-116, 26.5 µM (inactive); in the test with SW-620, 36.6 µM (inactive). For the same compound, the GI50 in the test with OVCAR-8 was 26.2 µM (inactive); with NCI-H23, 30.5 µM (inactive); with SN12C, 37 µM (inactive); in the test with SNB-19, > 10 µM (inactive); in the test on SNB-75, 30.3 µM (inactive); in the test with HOP-62, 26.7 µM (inactive). Besides, the GI50 with DMS-114 is 23.6 µM (inactive); in the test with NCI/ADR-RES, 21.2 µM (inactive); in the test with SF-268, 33 µM (inactive); in the test on HCT-15, 34.5 µM; in the test with SF-539 it was 25.5 µM (inactive).
With `COC(=O)C1=CO[C@@H](OC2CC(CO)C(O)C(O)C2O)[C@@H]2[C@@H](C)[C@@H](OC(=O)/C=C/c3ccccc3)[C@@H](O)[C@H]12.COC(=O)C1=CO[C@@H](OC2CC(CO)C(O)C(O)C2O)[C@@H]2[C@@H](C)[C@@H](OC(=O)c3ccccc3)[C@@H](O)[C@H]12` (stereo partly drawn), the GI50 with HOP-92, in the test on ACHN, with EKVX, in the test with NCI-H522, in the test on SK-MEL-28 and in the test with HCT-116 was > 100 µM (inactive) each time. Also, the GI50 in the test with SW-620 was > 100 µM (inactive); with OVCAR-8, > 100 µM (inactive); in the test with NCI-H23, > 100 µM (inactive); in the test with SN12C, > 100 µM (inactive); with SNB-19 it was 10 µM (inactive); in the test on SNB-75, > 100 µM (inactive). The GI50 with M14, in the test with HOP-62, with DMS-114, with SF-268 and in the test on SF-539 was > 100 µM (inactive) throughout.
Regarding `Cc1ccccc1NC(=O)c1c(C)oc2c1C(=O)c1ccccc1C2=O`, the GI50 is 20.3 µM (inactive) in the test on HOP-92; 36.9 µM (inactive) with ACHN; > 72.6 µM (inactive) with EKVX; 16.5 µM (inactive) in the test with NCI-H522; 27.5 µM (inactive) with SK-MEL-28; 32.1 µM (inactive) in the test with HCT-116. The GI50 in the test on SW-620 was 19.7 µM (inactive); in the test on OVCAR-8, 41.5 µM (inactive); with NCI-H23 it was 29.7 µM (inactive); with SN12C, > 53.7 µM (inactive); in the test with SNB-19 it was 35.6 µM (inactive); in the test on SNB-75, 39.7 µM (inactive). For the same compound, the GI50 in the test on M14 was 20.9 µM (inactive); with HOP-62, > 56.1 µM (inactive); with DMS-114, 24.7 µM (inactive); in the test on SF-268 it was 31.8 µM (inactive); with HCT-15, 32.1 µM; in the test with SF-539 it was 25.9 µM (inactive).
